From patent US20070232601A1, “Vla-4 Inhibitor” (priority 2004, published 2007)

Target: T1, hα4 and β1 integrins (VLA-4) (Homo sapiens, UniProt P05556+P13612)
T1 construct: expressed in transfected cells; host or cells: CHO cells
Experiment: In vitro evaluation: inhibition of binding of CHO cells expressing hα4 and β1 integrins to Eu3+-hVCAM-1 D1D7-IgG
Details: ligand Eu3+-hVCAM-1 D1D7-IgG 2 nM, Ki calculated from IC50
Experimental: CHO cells which were forced to be expressed by transduction of hα4 and β1 integrins are seeded (3×10^4 cells/100 μl/well) on a Costar 3599 plate, and cultured for 2 days. A medium is washed with a buffer A* two times, and Eu^3+-hVCAM-1 D1D7-IgG which was diluted with an assay buffer A** to 2 nM is added at 50 μl/well. A test substance which was diluted with 2% DMSO-assay buffer (in the presence or the absence of 6% human serum albumin) is added at 50 μl/well (A solution which was separately diluted is added to a well in which Scatchard analysis is performed), this is stirred with a plate mixer for 5 minutes, and allowed to stand at room temperature for 1 hour. Thereafter, this is washed with a buffer A four times, a potentiating reagent (manufactured by DELFIA) is added at 100 μl/well, this is shaken for 5 minutes using a plate mixer, and a fluorescence intensity is measured with a time-resolved fluorometer (DELFIA Wallac). IC50 (concentration at which binding of CHO cell and Eu^3+-hVCAM-1 D1D7-IgG is inhibited by 50%) of a test substance is obtained from an integration rate obtained from a calculation equation: [(FT−FNS)−(FI−FNS)]/[(FT−FNS)]×100, wherein FT indicates a fluorescence intensity of a well not containing a test substance, FNS indicates a fluorescence intensity of a well not containing a test substance and hVCAM-1 D1D7-IgG, and FI indicates a fluorescence intensity containing a test substance. A Kd value showing strength of binding and Bmax (maximum binding amount) were presumed in a range of 0.06 to 20 nM according to the Scachard analysis method. [formula]
A Ki value was calculated according to the above equation ([L] is ligand concentration)
[* buffer A: 25 mM HEPES (pH 7.5), 150 mM NaCl, 1 mM Ca^2+, 1 mM Mg^2+, 4 mM Mn^2+; ** assay buffer: 25 mM HEPES (pH 7.5), 150 mM NaCl, 1 mM Ca^2+, 1 mM Mg^2+, 4 mM Mn^2+, 0.1% BSA, 20 μM DTPA, with/without 6% ALBUMIN, HUMAN SERUM (C/NA-1653, SIGMA)]

T1 sequence (P13612 34-1032): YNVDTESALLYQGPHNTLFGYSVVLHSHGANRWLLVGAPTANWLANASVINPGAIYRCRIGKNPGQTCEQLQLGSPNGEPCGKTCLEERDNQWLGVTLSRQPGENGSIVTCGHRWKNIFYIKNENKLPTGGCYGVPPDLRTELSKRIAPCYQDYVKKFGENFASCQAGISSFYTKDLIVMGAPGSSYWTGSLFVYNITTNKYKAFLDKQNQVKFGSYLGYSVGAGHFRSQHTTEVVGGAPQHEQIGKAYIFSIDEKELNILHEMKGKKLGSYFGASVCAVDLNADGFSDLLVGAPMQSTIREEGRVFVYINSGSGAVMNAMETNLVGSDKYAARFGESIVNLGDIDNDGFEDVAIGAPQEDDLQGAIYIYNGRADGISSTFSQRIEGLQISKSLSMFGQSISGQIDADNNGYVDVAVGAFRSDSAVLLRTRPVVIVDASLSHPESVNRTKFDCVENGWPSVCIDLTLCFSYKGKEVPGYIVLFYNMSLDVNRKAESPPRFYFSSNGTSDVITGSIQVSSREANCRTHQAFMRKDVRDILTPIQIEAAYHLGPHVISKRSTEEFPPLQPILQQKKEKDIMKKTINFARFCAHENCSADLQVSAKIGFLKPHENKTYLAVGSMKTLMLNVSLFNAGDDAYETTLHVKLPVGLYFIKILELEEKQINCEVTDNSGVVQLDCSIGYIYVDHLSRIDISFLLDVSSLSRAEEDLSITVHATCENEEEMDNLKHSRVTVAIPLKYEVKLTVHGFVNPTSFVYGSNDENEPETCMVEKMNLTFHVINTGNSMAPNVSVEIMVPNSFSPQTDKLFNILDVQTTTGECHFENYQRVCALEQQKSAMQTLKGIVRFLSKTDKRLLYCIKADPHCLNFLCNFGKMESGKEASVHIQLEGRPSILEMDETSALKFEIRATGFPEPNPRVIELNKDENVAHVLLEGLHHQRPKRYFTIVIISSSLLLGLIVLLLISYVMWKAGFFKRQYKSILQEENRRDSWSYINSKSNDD
T1 sequence (P05556 21-798): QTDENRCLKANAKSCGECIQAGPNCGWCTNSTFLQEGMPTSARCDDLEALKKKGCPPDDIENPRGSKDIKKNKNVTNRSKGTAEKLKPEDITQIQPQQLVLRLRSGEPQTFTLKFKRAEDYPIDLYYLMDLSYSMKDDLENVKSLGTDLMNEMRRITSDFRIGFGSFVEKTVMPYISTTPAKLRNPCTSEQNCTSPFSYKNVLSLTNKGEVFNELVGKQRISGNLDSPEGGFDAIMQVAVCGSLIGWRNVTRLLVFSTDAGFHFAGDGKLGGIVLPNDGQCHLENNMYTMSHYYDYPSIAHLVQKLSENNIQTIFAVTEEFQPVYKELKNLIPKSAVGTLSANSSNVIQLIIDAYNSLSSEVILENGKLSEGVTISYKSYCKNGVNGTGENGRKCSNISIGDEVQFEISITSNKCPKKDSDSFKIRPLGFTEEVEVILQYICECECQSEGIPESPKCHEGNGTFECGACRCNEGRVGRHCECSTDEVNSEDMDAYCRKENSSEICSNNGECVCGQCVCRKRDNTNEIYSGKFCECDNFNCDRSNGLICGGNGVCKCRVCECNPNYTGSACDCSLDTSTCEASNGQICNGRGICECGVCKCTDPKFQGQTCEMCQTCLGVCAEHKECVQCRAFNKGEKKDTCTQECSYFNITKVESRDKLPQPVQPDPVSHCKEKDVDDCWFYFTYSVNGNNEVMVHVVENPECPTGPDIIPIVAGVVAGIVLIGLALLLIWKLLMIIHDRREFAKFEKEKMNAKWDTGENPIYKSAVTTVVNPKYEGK

Compound	Ki
CCO[C@H]1CCN(C(=O)Cc2cc(Cl)c(Nc3nc4ccccc4s3)cc2Cl)[C@@H]1c1ncc(CCC(=O)O)s1 [Example 115, 3-[2-[1-[4-(2-Benzothiazolyl)amino-2,5-dichlorophenyl]acetyl-(3S)-ethoxy-(2S)-pyrrolidinyl]-5-thiazolyl]propionic acid]	8.4 nM
CCO[C@H]1CCN(C(=O)Cc2cc(Cl)c(NC(=O)c3cn(C)c4ccccc34)cc2F)[C@@H]1c1ncc(CCC(=O)O)o1 [Example 97, 3-[2-[1-[[5-Chloro-2-fluoro-4-(1-methyl-3-indolylcarbonylamino)phenyl]acetyl]-(3S)-ethoxy-(2S)-pyrrolidinyl]-5-oxazolyl]propionic acid]	9.2 nM
COC[C@@]1(c2ncc(CCC(=O)O)s2)C[C@H](OC)CN1C(=O)Cc1cc(Cl)c(NC(=O)c2cn(C)c3ccccc23)cc1Cl [Example 133, 3-{2-[(2R,4S)-1-[2-(2,5-dichloro-4-{[(1-methyl-1H-indol-3-yl)carbonyl]amino}phenyl)acetyl]-4-methoxy-2-(methoxymethyl)pyrrolidinyl]thiazol-5-yl}propionic acid]	4.5 nM
CO[C@H]1C[C@@H](c2ncc(CCC(=O)O)o2)N(C(=O)Cc2cc(Cl)c(NC(=O)c3csc4ccccc34)cc2Cl)C1 [Example 14, 3-[2-[1-[[4-[(3-Benzo[b]thienylcarbonyl)amino]-2,5-dichlorophenyl]acetyl]-(4S)-methoxy-(2S)-pyrrolidinyl]-5-oxazolyl]propionic acid]	4 nM
CO[C@H]1C[C@@H](c2ncc(CCC(=O)O)o2)N(C(=O)Cc2cc(Cl)c(NC(=O)c3csc4ccccc34)cc2F)C1 [Example 15, 3-[2-[1-[[4-[(3-Benzo[b]thienylcarbonyl)amino]-5-chloro-2-fluorophenyl]acetyl]-(4S)-methoxy-(2S)-pyrrolidinyl]-5-oxazolyl]propionic acid]	4.5 nM
CO[C@@H]1C[C@@H](c2ncc(CCC(=O)O)s2)N(C(=O)Cc2cc(Cl)c(Nc3nc4ccccc4s3)cc2Cl)C1 [Example 125]	11 nM
CCO[C@H]1CCN(C(=O)Cc2ccc3nc(Nc4ccccc4OC)oc3c2)[C@@H]1c1ncc(CCC(=O)O)o1 [Example 106, 3-[2-[1-[[2-(2-Methoxyphenyl)amino-6-benzoxazolyl]acetyl]-(3S)-ethoxy-(2S)-pyrrolidinyl]-5-oxazolyl]propionic acid]	21 nM
CON(C)[C@H]1C[C@@H](c2ncc(CCC(=O)O)s2)N(C(=O)Cc2cc(Cl)c(NC(=O)c3csc4ccccc34)cc2Cl)C1 [Example 130, 3-[2-[1-[4-(3-Benzo[b]thiophenylcarbonylamino)-2,5-dichlorophenylacetyl]-(4S)—N,O-dimethylhydroxylamino-(2S)-pyrrolidinyl]-5-thiazolyl]propionic acid]	3.5 nM
CC(C)O[C@H]1C[C@@H](c2ncc(CCC(=O)O)s2)N(C(=O)Cc2cc(Cl)c(NC(=O)c3cn(C)c4ccccc34)cc2Cl)C1 [Example 34, 3-[2-[1-[2,5-Dichloro-4-(1-methyl-3-indolylcarbonylamino)phenylacetyl]-(4S)-isopropoxy-(2S)-pyrrolidinyl]-5-thiazolyl]propionic acid]	5.1 nM
COc1ccccc1Nc1nc2ccc(CC(=O)N3C[C@@H](OC)C[C@H]3c3ncc(CCC(=O)O)o3)c(F)c2o1 [Example 17, 3-[2-[1-[[7-Fluoro-2-(2-methoxyphenylamino)-1,3-benzoxazol-6-yl]acetyl]-(4S)-methoxy-(2S)-pyrrolidinyl]-5-oxazolyl]propionic acid]	15 nM
CCO[C@H]1CCN(C(=O)Cc2ccc3nc(Nc4cc(F)ccc4OC)oc3c2F)[C@@H]1c1ncc(CCC(=O)O)o1 [Example 105, 3-[2-[1-[[7-Fluoro-2-(5-fluoro-2-methoxyphenyl)amino-6-benzoxazolyl]acetyl]-(3S)-ethoxy-(2S)-pyrrolidinyl]-5-oxazolyl]propionic acid]	11 nM
O=C(O)CCc1cnc([C@@H]2C[C@H](OC3CCC3)CN2C(=O)Cc2cc(Cl)c(NC(=O)c3coc4ccccc34)cc2F)s1 [Example 43, 3-[2-[1-[4-[(1-Benzofuran-3-ylcarbonyl)amino]-5-chloro-2-fluorophenylacetyl]-(4S)-cyclobutoxy-(2S)-pyrrolidinyl]-5-thiazolyl]propionic acid]	2.9 nM
CO[C@H]1C[C@@H](c2ncc(CCC(=O)O)o2)N(C(=O)Cc2cc(Cl)c(NC(=O)c3cn(C)c4ccccc34)cc2F)C1 [Example 13, 3-[2-[1-[5-Chloro-2-fluoro-4-(1-methyl-3-indolylcarbonyl)aminophenylacetyl]-(4S)-methoxy-(2S)-pyrrolidinyl]-5-oxazolyl]propionic acid]	17 nM
CCO[C@H]1CCN(C(=O)Cc2cc(Cl)c(NC(=O)c3cn(C)c4ccccc34)cc2Cl)[C@@H]1c1ncc(CCC(=O)O)o1 [Example 98, 3-[2-[1-[[2,5-Dichloro-4-(1-methyl-3-indolylcarbonylamino)phenyl]acetyl]-(3S)-ethoxy-(2S)-pyrrolidinyl]-5-oxazolyl]propionic acid]	11 nM
CO[C@H]1C[C@@H](c2ncc(CCC(=O)O)s2)N(C(=O)Cc2ccc(Nc3nc4c(Cl)cccc4s3)c(Cl)c2)C1 [Example 114, 3-[2-[1-[4-(4-Chloro-2-benzothiazolyl)amino-3-chlorophenyl]acetyl-(4S)-methoxy-(2S)-pyrrolidinyl]-5-thiazolyl]propionic acid]	6.9 nM
CC(C)O[C@H]1C[C@@H](c2ncc(CCC(=O)O)s2)N(C(=O)Cc2cc(Cl)c(NC(=O)c3coc4ccccc34)cc2Cl)C1 [Example 37, 3-[2-[1-[4-[(1-Benzofuran-3-ylcarbonyl)amino]-2,5-dichlorophenylacetyl]-(4S)-isopropoxy-(2S)-pyrrolidinyl]5-thiazolyl]propionic acid]	5.9 nM

Further compounds by falling Ki, results first:

Ki	Compound
19 nM	O=C(O)CCn1nnc([C@@H]2CCCN2C(=O)Cc2cc(Cl)c(NC(=O)c3csc4ccccc34)cc2F)n1 [Example 126, 3-[5-[1-[[4-[(3-Benzo[b]thiophenylcarbonyl)amino]-5-chloro-2-fluorophenyl]acetyl]-(2S)-pyrrolidinyl]-2H-tetrazol-2-yl]propionic acid]
17 nM	COC[C@@H]1CC[C@@H](c2ncc(CCC(=O)O)s2)N1C(=O)Cc1cc(Cl)c(NC(=O)c2csc3ccccc23)cc1F [Example 55, 3-[2-[1-[4-[(3-Benzo[b]thienylcarbonyl)amino]-5-chloro-2-fluorophenylacetyl]-(5S)-methoxymethyl-(2S)-pyrrolidinyl]-5-thiazolyl]propionic acid]
6.5 nM	CO[C@@H]1C[C@@H](c2ncc(CCC(=O)O)s2)N(C(=O)Cc2cc(Cl)c(NC(=O)c3cn(C)c4ccccc34)cc2Cl)C1 [Example 24, 3-[2-[1-[2,5-Dichloro-4-(1-methyl-3-indolylcarbonylamino)phenylacetyl]-(4R)-methoxy-(2S)-pyrrolidinyl]-5-thiazolyl]propionic acid]
6.4 nM	CCO[C@H]1CCN(C(=O)Cc2cc(Cl)c(NC(=O)c3coc4ccccc34)cc2Cl)[C@@H]1c1ncc(CCC(=O)O)s1 [Example 96]
6.2 nM	CCO[C@H]1CCN(C(=O)Cc2cc(Cl)c(NC(=O)c3csc4ccccc34)cc2Cl)[C@@H]1c1ncc(CCC(=O)O)s1 [Example 94]
5.9 nM	CON(C)[C@H]1C[C@@H](c2ncc(CCC(=O)O)s2)N(C(=O)Cc2cc(Cl)c(NC(=O)c3coc4ccccc34)cc2F)C1 [Example 131, 3-[2-[1-[4-(3-Benzo[b]furanylcarbonylamino)-5-chloro-2-fluorophenylacetyl]-(4S)—N,O-dimethylhydroxylamino-(2S)-pyrrolidinyl]-5-thiazolyl]propionic acid]
5.3 nM	3-[2-[1-[4-(3-Benzo[b]thiophenylcarbonyl)amino-5-chloro-2-fluorophenyl]acetyl]-(3S)-ethoxy-(2S)-pyrrolidinyl]-5-oxazolyl]propionic acid methyl ester [Example 99]
0.97 nM	CO[C@H]1C[C@@H](c2ncc(CCC(=O)O)s2)N(C(=O)Cc2cc(Cl)c(NC(=O)c3nn(C)c4ccccc34)cc2F)C1 [Example 7, 3-[2-[1-[5-Chloro-2-fluoro-4-(1-methyl-3-indazolylcarbonyl)aminophenylacetyl]-(4S)-methoxy-(2S)-pyrrolidinyl]-5-thiazolyl]propionic acid]
0.6 nM	CO[C@H]1C[C@@H](c2ncc(CCC(=O)O)s2)N(C(=O)Cc2cc(Cl)c(NC(=O)c3coc4ccccc34)cc2Cl)C1 [Example 5, 3-[2-[1-[4-[(1-Benzofuran-3-ylcarbonyl)amino]-2,5-dichlorophenylacetyl]-(4S)-methoxy-(2S)-pyrrolidinyl]-5-thiazolyl]propionic acid]
